In ChEMBL document CHEMBL1131904, “Peptidic immunosuppressants from the fungus Trichoderma polysporum” (Bioorg Med Chem Lett, 1999):
Numbered stars: 1 amine (or outer) side, 2 acyl side, 3 side chain; on linkers, the order of the positions; unused ones are H or OH. Square brackets hold non-standard residues; d marks the D form. Peptide text beside a SMILES is read from it. * marks the point of attachment. ξ: configuration not given here. X1 = CCC(=O)C[C@@H](O)C[C@@H](C)C[C@H](N[*:1])C(=O)[*:2]; Alaψ(CH2NMeCH2CH2OH) = C[C@@H](CN(C)CCO)N*; Decanoyl(2R-Me) = CCCCCCCC[C@@H](C)C(=O)*; X2 = CCCCCCC[C@H](O)[C@H](C)C(=O)*; Aib = CC(C)(N)C(=O)O; ξA = CC(N)C(=O)O

Tests used:
[1] = species on record: Mus musculus; assay: Inhibitory activity against the production of interleukin 4 (IL-4); format: functional, organism-based
[2] = species on record: Mus musculus; assay: Inhibitory activity against the proliferation of lymphocytes in mouse allogenic mixed lymphocyte reaction (MLR).; format: functional, organism-based

Row | IC50 [1] | SMILES | IC50 [2]
1 | > 1000 nM | CCCCCCC[C@H](O)[C@H](C)C(=O)N1CCC[C@H]1C(=O)N[C@@H](C[C@H](C)C[C@H](O)CC(=O)CC)C(=O)N[C@@H](C)C(=O)NC(C)(C)C(=O)NC(C)(C)C(=O)N[C@H](C(=O)N[C@@H](C)C(=O)NC(C)(C)C(=O)NC(C)(C)C(=O)N[C@@H](C)CN(C)CCO)[C@@H](C)CC (X2-P[X1]A[Aib][Aib]IA[Aib][Aib]-{Alaψ(CH2NMeCH2CH2OH)}) | 294 nM
2 | > 1000 nM | CCCCCCCC[C@@H](C)C(=O)N1CCC[C@H]1C(=O)N[C@@H](C[C@H](C)C[C@H](O)CC(=O)CC)C(=O)N[C@@H](C)C(=O)NC(C)(C)C(=O)NC(C)(C)C(=O)N[C@H](C(=O)N[C@@H](C)C(=O)NC(C)(C)C(=O)NC(C)(C)C(=O)N[C@@H](C)CN(C)CCO)[C@@H](C)CC ({Decanoyl(2R-Me)}-P[X1]A[Aib][Aib]IA[Aib][Aib]-{Alaψ(CH2NMeCH2CH2OH)}) | 5.2 nM
3 | > 1000 nM | CCCCCCCC[C@@H](C)C(=O)N1CCC[C@H]1C(=O)N[C@@H](C[C@H](C)C[C@H](O)CC(=O)CC)C(=O)N[C@@H](C)C(=O)NC(C)(C)C(=O)NC(C)(C)C(=O)N[C@H](C(=O)N[C@@H](C)C(=O)NC(C)(C)C(=O)NC(C)C(=O)N[C@@H](C)CN(C)CCO)[C@@H](C)CC (stereo partly drawn) ({Decanoyl(2R-Me)}-P[X1]A[Aib][Aib]IA[Aib][ξA]-{Alaψ(CH2NMeCH2CH2OH)}) | 20.5 nM

Continued, compound first:

Row | SMILES | IC50 [1] | IC50 [2]
4 | CCCCCCCC[C@@H](C)C(=O)N1CCC[C@H]1C(=O)N[C@@H](C[C@H](C)C[C@H](O)CC(=O)CC)C(=O)N[C@@H](C)C(=O)NC(C)(C)C(=O)NC(C)(C)C(=O)N[C@H](C(=O)N[C@@H](C)C(=O)NC(C)(C)C(=O)NC(C)(C)C(=O)N[C@@H](C)CN(C)CCO)C(C)C ({Decanoyl(2R-Me)}-P[X1]A[Aib][Aib]VA[Aib][Aib]-{Alaψ(CH2NMeCH2CH2OH)}) | > 1000 nM | 10.7 nM
5 | CCCCCCCC[C@@H](C)C(=O)N1CCC[C@H]1C(=O)N[C@@H](C[C@H](C)C[C@H](O)CC(=O)CC)C(=O)N[C@@H](C)C(=O)NC(C)(C)C(=O)NC(C)(C)C(=O)N[C@H](C(=O)N[C@@H](C)C(=O)NC(C)(C)C(=O)NC(C)C(=O)N[C@@H](C)CN(C)CCO)C(C)C (stereo partly drawn) ({Decanoyl(2R-Me)}-P[X1]A[Aib][Aib]VA[Aib][ξA]-{Alaψ(CH2NMeCH2CH2OH)}) | > 1000 nM | 60.4 nM
